This passage reports IC50 results from patent publication US20260250290A1 (BRISTOL-MYERS SQUIBB COMPANY, priority 2023, published 2026).

The test addresses T1, full length SGK1 (Homo sapiens, UniProt O00141).
T1 construct: 125 μM full length SGK1 (Life Technologies Part #PR7358A); purchased Life Technologies PR7358A
T1 sequence (O00141 1-431): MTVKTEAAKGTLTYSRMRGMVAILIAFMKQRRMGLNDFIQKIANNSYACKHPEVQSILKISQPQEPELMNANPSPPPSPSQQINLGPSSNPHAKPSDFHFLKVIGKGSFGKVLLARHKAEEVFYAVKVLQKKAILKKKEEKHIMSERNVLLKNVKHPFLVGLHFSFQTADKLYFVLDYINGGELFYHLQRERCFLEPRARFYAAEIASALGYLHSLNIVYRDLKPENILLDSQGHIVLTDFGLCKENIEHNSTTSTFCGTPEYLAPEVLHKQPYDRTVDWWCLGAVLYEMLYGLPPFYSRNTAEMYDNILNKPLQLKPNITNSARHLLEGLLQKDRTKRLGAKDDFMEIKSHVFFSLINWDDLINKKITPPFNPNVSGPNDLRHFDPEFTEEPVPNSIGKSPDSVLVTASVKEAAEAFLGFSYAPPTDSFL
As to the kind of experiment: SGK1 inhibition Assay A (Caliper LabChip electrophoretic separation of fluorescent peptide substrate and phosphorylated product). The class given is biochemical. The following applies: Assay A; 20 μM ATP, 40 min incubation; read-out: SGK1 IC50.

Each structure is given as a SMILES string.

On to `Cc1nc(C)c(C(=O)N[C@@H]2CCCN(c3cc(-c4cncnc4)n4ncnc(N)c34)C2)s1` [Example 511, (R)-N-(1-(4-amino-7-(pyrimidin-5-yl)pyrrolo[2,1-f][1,2,4]triazin-5-yl)piperidin-3-yl)-2,4-dimethylthiazole-5-carboxamide], for which the IC50 (in general, the concentration that gives 50% inhibition) turned out to be 450 nM.
With `Cc1nc(C)c(C(=O)N[C@@H]2CCCN(c3cc(-c4ccc(C#N)nc4)n4ncnc(N)c34)C2)s1` [Example 512, (R)-N-(1-(4-amino-7-(6-cyanopyridin-3-yl)pyrrolo[2,1-f][1,2,4]triazin-5-yl)piperidin-3-yl)-2.4-dimethylthiazole-5-carboxamide] the figure was 66 nM; with `Cc1nc(C)c(C(=O)N[C@@H]2CCCN(c3cc(-c4ccnc(C#N)c4)n4ncnc(N)c34)C2)s1` [Example 513, (R)-N-(1-(4-amino-7-(2-cyanopyridin-4-yl)pyrrolo[2,1-f][1,2,4]triazin-5-yl)piperidin-3-yl)-2.4-dimethylthiazole-5-carboxamide], 32 nM; with `Cc1nc(C)c(C(=O)N[C@@H]2CCCN(c3cc(-c4ccc(=O)n(CC(C)C)c4)n4ncnc(N)c34)C2)s1` [Example 514, (R)-N-(1-(4-amino-7-(1-isobutyl-6-oxo-1,6-dihydropyridin-3-yl)pyrrolo[2,1-f][1,2,4]triazin-5-yl)piperidin-3-yl)-2,4-dimethylthiazole-5-carboxamide], 131 nM.
The value for `N#Cc1ccc(-c2cc(N3CCC[C@@H](NC(=O)c4cc5cc(F)ccc5[nH]4)C3)c3c(N)ncnn23)cn1` [Example 515, (R)-N-(1-(4-amino-7-(6-cyanopyridin-3-yl)pyrrolo[2,1-f][1,2,4]triazin-5-yl)piperidin-3-yl)-5-fluoro-1H-indole-2-carboxamide] was 130 nM.
Turning to `Nc1ncnn2c(-c3cncnc3)cc(N3CCC[C@@H](NC(=O)c4cc5cc(F)ccc5[nH]4)C3)c12` [Example 516, (R)-N-(1-(4-amino-7-(pyrimidin-5-yl)pyrrolo[2,1-f][1,2,4]triazin-5-yl)piperidin-3-yl)-5-fluoro-1H-indole-2-carboxamide], the IC50 came out at 164 nM.
The value for `CC(=O)N1CC=C(c2cc(N3CCC[C@@H](NC(=O)c4cc5cc(F)ccc5[nH]4)C3)c3c(N)ncnn23)C1` [Example 517, (R)-N-(1-(7-(1-acetyl-2,5-dihydro-1H-pyrrol-3-yl)-4-aminopyrrolo[2,1-f][1,2,4]triazin-5-yl)piperidin-3-yl)-5-fluoro-1H-indole-2-carboxamide] was 28 nM.
The value for `COC(=O)N1CC=C(c2cc(N3CCC[C@@H](NC(=O)c4cc5cc(F)ccc5[nH]4)C3)c3c(N)ncnn23)C1` [Example 518, Methyl (R)-3-(4-amino-5-(3-(5-fluoro-1H-indole-2-carboxamido)piperidin-1-yl)pyrrolo[2,1-f][1,2,4]triazin-7-yl)-2,5-dihydro-1H-pyrrole-1-carboxylate] was 138 nM; that for `Cc1cc(-c2cc(N3CCC[C@@H](NC(=O)c4ccc(C(F)F)s4)C3)c3c(N)ncnn23)cnc1C#N` [Example 522] was 17 nM; that for `N#Cc1ncc(-c2cc(N3CCC[C@@H](NC(=O)c4ccc(C(F)F)s4)C3)c3c(N)ncnn23)cc1F` [Example 523, (R)-N-(1-(4-amino-7-(6-cyano-5-fluoropyridin-3-yl)pyrrolo[2,1-f][1,2,4]triazin-5-yl)piperidin-3-yl)-5-(difluoromethyl)thiophene-2-carboxamide] was 118 nM.
The value for `N#Cc1ncc(-c2cc(N3CCC[C@@H](NC(=O)c4ccc(C(F)F)s4)C3)c3c(N)ncnn23)cc1C(F)(F)F` [Example 524, (R)-N-(1-(4-amino-7-(6-cyano-5-(trifluoromethyl)pyridin-3-yl)pyrrolo[2,1-f][1,2,4]triazin-5-yl)piperidin-3-yl)-5-(difluoromethyl)thiophene-2-carboxamide] was 362 nM; that for `NC(=O)c1ncc(-c2cc(N3CCC[C@@H](NC(=O)c4ccc(C(F)F)s4)C3)c3c(N)ncnn23)cc1C(F)(F)F` [Example 525] was 26 nM; that for `Nc1ncnn2c(-c3ccc(=O)[nH]c3)cc(N3CCC[C@@H](NC(=O)c4ccc(C(F)F)s4)C3)c12` [Example 526, (R)-N-(1-(4-amino-7-(6-oxo-1,6-dihydropyridin-3-yl)pyrrolo[2,1-f][1,2,4]triazin-5-yl)piperidin-3-yl)-5-(difluoromethyl)thiophene-2-carboxamide] was 190 nM.
As for `Nc1ncnn2c(-c3ccc(=O)n(C(F)F)c3)cc(N3CCC[C@@H](NC(=O)c4ccc(C(F)F)s4)C3)c12` [Example 527, (R)-N-(1-(4-amino-7-(1-(difluoromethyl)-6-oxo-1,6-dihydropyridin-3-yl)pyrrolo[2,1-f][1,2,4]triazin-5-yl)piperidin-3-yl)-5-(difluoromethyl)thiophene-2-carboxamide], the IC50 is 148 nM.
The value for `Nc1ncnn2c(-c3ccc(OC(F)F)nc3)cc(N3CCC[C@@H](NC(=O)c4ccc(C(F)F)s4)C3)c12` [Example 528, (R)-N-(1-(4-amino-7-(6-(difluoromethoxy)pyridin-3-yl)pyrrolo[2,1-f][1,2,4]triazin-5-yl)piperidin-3-yl)-5-(difluoromethyl)thiophene-2-carboxamide] was 139 nM.
The value for `N#Cc1ncc(-c2cc(N3CCC[C@@H](NC(=O)c4ccc(Cl)s4)C3)c3c(N)ncnn23)cc1F` [Example 530, (R)-N-(1-(4-amino-7-(6-cyano-5-fluoropyridin-3-yl)pyrrolo[2,1-f][1,2,4]triazin-5-yl)piperidin-3-yl)-5-chlorothiophene-2-carboxamide] was 11 nM; that for `N#Cc1ncc(-c2cc(N3CCC[C@@H](NC(=O)c4ccc(Cl)s4)C3)c3c(N)ncnn23)cc1C(F)(F)F` [Example 531, (R)-N-(1-(4-amino-7-(6-cyano-5-(trifluoromethyl)pyridin-3-yl)pyrrolo[2,1-f][1,2,4]triazin-5-yl)piperidin-3-yl)-5-chlorothiophene-2-carboxamide] was 18 nM; that for `CCn1cc(-c2cc(N3CCC[C@@H](NC(=O)c4ccc(Cl)s4)C3)c3c(N)ncnn23)ccc1=O` [Example 532, (R)-N-(1-(4-amino-7-(1-ethyl-6-oxo-1,6-dihydropyridin-3-yl)pyrrolo[2,1-f][1,2,4]triazin-5-yl)piperidin-3-yl)-5-chlorothiophene-2-carboxamide] was 6 nM.
The value for `CC(C)(O)c1ncc(-c2cc(N3CCC[C@@H](NC(=O)c4ccc(Cl)s4)C3)c3c(N)ncnn23)cn1` [Example 533, (R)-N-(1-(4-amino-7-(2-(2-hydroxypropan-2-yl)pyrimidin-5-yl)pyrrolo[2,1-f][1,2,4]triazin-5-yl)piperidin-3-yl)-5-chlorothiophene-2-carboxamide] was 728 nM; that for `Nc1ncnn2c(-c3ccc(OCC(F)F)nc3)cc(N3CCC[C@@H](NC(=O)c4ccc(Cl)s4)C3)c12` [Example 534, (R)-N-(1-(4-amino-7-(6-(2,2-difluoroethoxy)pyridin-3-yl)pyrrolo[2,1-f][1,2,4]triazin-5-yl)piperidin-3-yl)-5-chlorothiophene-2-carboxamide] was 8 nM; that for `Nc1ncnn2c(-c3cnccn3)cc(N3CCC[C@@H](NC(=O)c4ccc(Cl)s4)C3)c12` [Example 535, (R)-N-(1-(4-amino-7-(pyrazin-2-yl)pyrrolo[2,1-f][1,2,4]triazin-5-yl)piperidin-3-yl)-5-chlorothiophene-2-carboxamide] was 58 nM.
For `Nc1ncnn2c(-c3ccc(=O)[nH]c3)cc(N3CCC[C@@H](NC(=O)c4ccc(Cl)s4)C3)c12` [Example 536, (R)-N-(1-(4-amino-7-(6-oxo-1,6-dihydropyridin-3-yl)pyrrolo[2,1-f][1,2,4]triazin-5-yl)piperidin-3-yl)-5-chlorothiophene-2-carboxamide], the IC50 was found to be 7 nM.
Take `Nc1ncnn2c(-c3ccc(=O)n(C(F)F)c3)cc(N3CCC[C@@H](NC(=O)c4ccc(Cl)s4)C3)c12` [Example 537, (R)-N-(1-(4-amino-7-(1-(difluoromethyl)-6-oxo-1,6-dihydropyridin-3-yl)pyrrolo[2,1-f][1,2,4]triazin-5-yl)piperidin-3-yl)-5-chlorothiophene-2-carboxamide]: the IC50 was 2 nM.
The value for `Nc1ncnn2c(-c3ccc(OC(F)F)nc3)cc(N3CCC[C@@H](NC(=O)c4ccc(Cl)s4)C3)c12` [Example 538, (R)-N-(1-(4-amino-7-(6-(difluoromethoxy)pyridin-3-yl)pyrrolo[2,1-f][1,2,4]triazin-5-yl)piperidin-3-yl)-5-chlorothiophene-2-carboxamide] was 20 nM.
On to `Nc1ncnn2c(-c3ccc(C=O)cc3)cc(N3CCC[C@@H](NC(=O)c4ccc(Cl)s4)C3)c12` [Example 539], for which the IC50 was found to be 0.4 nM.
With `CC(=O)N1CC=C(c2cc(N3CCC[C@@H](NC(=O)c4ccc(-c5ccnc(C(F)F)c5)s4)C3)c3c(N)ncnn23)C1` [Example 541, (R)—N-(1-(7-(1-acetyl-2,5-dihydro-1H-pyrrol-3-yl)-4-aminopyrrolo[2,1-f][1,2,4]triazin-5-yl)piperidin-3-yl)-5-(2-(difluoromethyl)pyridin-4-yl)thiophene-2-carboxamide] the figure was 5 nM; with `Nc1ncnn2c(-c3ccnc(C(F)F)c3)cc(N3CCC[C@@H](NC(=O)c4ccc(-c5ccnc(C(F)F)c5)s4)C3)c12` [Example 542, (R)-N-(1-(4-amino-7-(2-(difluoromethyl)pyridin-4-yl)pyrrolo[2,1-f][1,2,4]triazin-5-yl)piperidin-3-yl)-5-(2-(difluoromethyl)pyridin-4-yl)thiophene-2-carboxamide], 4 nM.
